Data as given in patent US20120070445A1, “BRAIN-DERIVED GONADOTROPINS AND COGNITION” (priority 2006, published 2012).

Legend:
Tg2576 mice [1] = assay: Y-maze performance in aged Tg2576 mice; type: in vivo; settings: 21 month old Tg2576 female mice, 3 months treatment vs placebo/saline, p<0.01
Aβ [2] = assay: Hippocampal Aβ burden (% area stained) in Tg2576 mice; type: in vivo; settings: vs saline-treated, p<0.05
Description: Scale bar, 200 μm. […] In this initial study we used aged animals to 1) circumvent the estrogen issue, since aged mice, like humans show estropause and 2) to examine the effects of LH ablation once the disease is well established.

LH = assay: Serum LH and pituitary LHβ mRNA after leuprolide acetate; type: in vivo, Tg2576 mice
C57/B6 female mice [3] = assay: Y-maze in ovariectomized mice with or without estrogen replacement; type: in vivo; settings: OVX mice
C57/B6 female mice [4] = assay: Morris Water Maze in ovariectomized mice (training and probe trial); type: in vivo; settings: for length of time taken to locate the invisible platform across days (rescue of OVX-associated cognitive decline): OVX mice, three training days
Procedure: (Significance indicated by: *=P+S vs E+S; #=P+S vs P+L; $=P+S vs SHAM; %=P+S vs E+L; at p<0.05).
Additionally, to further determine the memory function and training success in the animals we measured the capacity of the animals to retain the information learned using a probe trial. In this regard, at the end of the last day of training we removed the platform and let the animals swim for 1 minute.

Tg2576 mice [5] = settings: APP transgenic mice, recent study; cited from earlier work
Aβ [6] = settings: APP transgenic mice, recent study; cited from earlier work
AD patients = settings: high doses, completed phase II trial; cited from earlier work
[7] = Body weight 3 months post-surgery + replacement + drug treatment
Description: In addition we added a SHAM ovariectomized group that received saline and a placebo pallet (n=10). During the last two weeks of the study all animals have been tested for Y-maze and Morris Water Maze performance.

| Molecule | cognitive decline (Y-maze % alternations, change from baseline) (Tg2576 mice [1]) | Aβ burden, % area stained in the entire hippocampus (Aβ [2]) | serum LH (LH; Tg2576 mice, vs saline, P<0.02) | LHβ mRNA expression in the pituitary (LH; mice, 6 and 8 week treatment vs saline) | Y-maze performance (C57/B6 female mice [3]; leuprolide acetate 7.5 mg/kg for 3 months vs saline, specific to placebo replaced group (p=0.005)) | length of time taken to locate the invisible platform across days (rescue of OVX-associated cognitive decline) (C57/B6 female mice [4]) | learning rate in Morris Water Maze (C57/B6 female mice [4]; independent of replacement regimen, vs saline, p=0.027) | latency to enter NE quadrant, probe trial (C57/B6 female mice [4]; regardless of replacement regimen, 0.041) | distance swam in NE quadrant, probe trial (C57/B6 female mice [4]; regardless of replacement regimen, p=0.003) | number of platform crossings, probe trial (C57/B6 female mice [4]; regardless of replacement regimen, p=0.004) | latency to enter platform location, probe trial (C57/B6 female mice [4]; regardless of replacement regimen, p=0.005) | Y-maze performance (Tg2576 mice [5]) | amyloid-β load in the hippocampus (Aβ [6]) | cognitive impairment and activities of daily living (AD patients) | Y-maze performance, estrogen-replaced vs placebo replaced (C57/B6 female mice [3]; saline-treated, t=1.841, p=0.07) | Body weight ([7]; OVX + Estrogen, Saline, 3 months post-surgery) | body weight of OVX+estrogen replaced group compared with SHAM ([7]; irrespective of drug treatment) |
| --- | --- | --- | --- | --- | --- | --- | --- | --- | --- | --- | --- | --- | --- | --- | --- | --- | --- |
| CCNC(=O)[C@@H]1CCCN1C(=O)[C@H](CCCNC(=N)N)NC(=O)[C@H](CC(C)C)NC(=O)[C@@H](CC(C)C)NC(=O)[C@H](Cc1ccc(O)cc1)NC(=O)[C@H](CO)NC(=O)[C@H](Cc1c[nH]c2ccccc12)NC(=O)[C@H](Cc1c[nH]cn1)NC(=O)[C@@H]1CCC(=O)N1 [leuprolide acetate] | significantly attenuates cognitive decline | significantly lower | significant decline in serum LH | clear decrease in the expression of LHβ mRNA | significantly improved Y-maze performance | as effective as estrogen in rescuing OVX-associated cognition decline | learned at a faster rate | entered that quadrant earlier | swam longer distances | crossed it more times | crossed the invisible platform region more earlier | improves Y-maze performance | decreases amyloid-β load | stabilization in cognitive impairment and activities of daily living |  |  |  |
| Estrogen |  |  |  |  |  | rescued by estrogen replacement |  |  |  |  |  |  |  |  | strong trend | 23.5 | not different from the SHAM operated group |
